How the values were obtained:
[1] = Release of small molecule cargo loaded in the PCL fibers; format: physicochemical
Protocol: FIG. 21 depicts FITC (50-500 ng) released from the fibers over the course of 90 days. FITC was loaded in the mixture of the PCL solution similar to grazoprevir loaded meshes. (n=4)
Doxorubicin was loaded in the mixture of the PCL solution similar to grazoprevir loaded meshes. (n=3)
When used with primary CD8+ HER2-targeted NS3 CAR T cells with the same grazoprevir-dependent CARs, the […] were excited (CD69 expression) when co-cultured with the meshes and HER2-expression NALM6 cells (FIG. 19).
The meshes ability to release doxorubicin over time was characterized as a functional delivery method for chemotherapeutic drugs.

[2] = cited from earlier work

In the case of `O=C1OC2(c3ccc(O)cc3Oc3cc(O)ccc32)c2ccc(N=C=S)cc21` [FITC], the “period of release from the fibers” value ([1]; FITC 50-500 ng loaded in the PCL solution, n=4) is listed as 90 days and the “log P” value [2] is listed as 4.8.

For `COc1cccc2c1C(=O)c1c(O)c3c(c(O)c1C2=O)C[C@@](O)(C(=O)CO)C[C@@H]3O[C@H]1C[C@H](N)[C@H](O)[C@H](C)O1` [doxorubicin], the “period of release from the fibers” value ([1]; 500 ug doxorubicin loaded in the PCL solution, n=3) was 28 days and the “release over time in vitro” value ([1]; in vitro, in words) was “several weeks to months”.

For `C=C[C@@H]1C[C@]1(NC(=O)[C@@H]1C[C@@H]2CN1C(=O)[C@H](C(C)(C)C)NC(=O)O[C@@H]1C[C@H]1CCCCCc1nc3ccc(OC)cc3nc1O2)C(=O)NS(=O)(=O)C1CC1.O` [grazoprevir], the “log P” value [2] is given as 4.7.

Reference: US11819578B2, “Nanofiber scaffolds” (Trustees of Boston University, priority 2021, dated 2023)
